Data on 2 molecules can be found in ChEMBL document CHEMBL1240319, “New approaches to molecular cancer therapeutics” (Nat Chem Biol, 2006).

SMILES strings stand for the structures.

By IC50 is commonly meant the point on the concentration scale where inhibition reaches its midpoint. The low end stands for greater potency in that assay, the high end for weaker potency in that assay.

The assay in a line: Inhibition of HSP90.

Molecule `CCNC(=O)c1n[nH]c(-c2cc(Cl)c(O)cc2O)c1-c1ccc(OC)cc1` returned an IC50 of 0.025 µM.

`CCc1cc(-c2[nH]nc(C)c2-c2ccc3c(c2)OCCO3)c(O)cc1O` displayed an IC50 of 9 µM.
